Assay results from patent publication US20050096259A1, “Neutrophil activation by immune response modifier compounds” (3M Innovative Properties Company, priority 2003, published 2005).

test system: TLR8, TLR7; assay: TLR agonism classification (TLR8 versus TLR7 agonist); format: cell-based; settings: classification in words; agonist of TLR8 but not TLR7 = TLR8-selective; no numeric data given
From the text: The TLR agonism for a particular compound may be assessed in any suitable manner. […] The assay used to assess the agonism of a compound with respect to one TLR may be the same as, or a different than, the assay used to assess the agonism of the compound with respect to another TLR.
Similarly, a compound may be identified as not acting as a TLR7 agonist (i.e., a TLR7 non-agonist) if, when used to perform an assay designed to detect TLR7-mediated biological activity, the compound fails to elicit a threshold increase in TLR7-mediated biological activity. […] An assay may or may not be performed in conjunction with the appropriate control.
Assays employing HEK293 cells transfected with an expressible TLR structural gene may use a threshold of, for example, at least a three-fold increase in a TLR-mediated biological activity (e.g., NFKB activation) when the compound is provided at a concentration of, for example, from about 1 μM to about 30 μM for identifying a compound as an agonist of the TLR transfected into the cell. However, different thresholds and/or different concentration ranges may be suitable in certain circumstances. Also, different thresholds may be appropriate for different assays.

| Compound | TLR agonist selectivity (TLR7/TLR8) as stated for the compound |
| --- | --- |
| CCOCc1nc2c(N)nc3ccccc3c2n1CCNS(C)(=O)=O [Compound 6, N-{2-[4-amino-2-(ethoxymethyl)-1H-imidazo[4,5-c]quinolin-1-yl]ethyl}methanesulfonamide] | TLR8-selective agonist |
| CCCCCCCCCCCCCCCC(=O)NCCOCCn1c(CCOC)nc2c(N)nc3ccccc3c21 [Compound 5, N-(2-{2-[4-amino-2-(2-methoxyethyl)-1H-imidazo[4,5-c]quinolin-1-yl]ethoxy}ethyl)hexadecanamide] | TLR8-selective agonist |
| CCc1nc2c(N)nc3ccccc3c2n1CCCCNS(C)(=O)=O [Compound 3, N-[4-(4-amino-2-ethyl-1H-imidazo[4,5-c]quinolin-1-yl)butyl]methanesulfonamide] | TLR7-selective agonist |
| CCOCc1nc2c(N)nc3c(c2n1CC(C)(C)O)CCCC3 [Compound 2, 4-amino-2-(ethoxymethyl)-α,α-dimethyl-6,7,8,9-tetrahydro-1H-imidazo[4,5-c]quinoline-1-ethanol] | TLR7/8 agonist |
| CC(C)Cn1cnc2c(N)nc3ccccc3c21 [Compound 4, 1-(2-methylpropyl)-1H-imidazo[4,5-c]quinolin-4-amine, reference compound] | TLR7-selective agonist |
